This passage reports solubility (mole fraction) results from BigSolDB 2.1.

For the compound `O=C(O)c1cccc(C(=O)O)c1`, the solubility (mole fraction) runs as follows: (in n-propyl acetate, 303.2 K) 0.000791; (in n-propyl acetate, 313.2 K) 0.000934; (in n-propyl acetate, 323.2 K) 0.00108; (in n-propyl acetate, 333.2 K) 0.00132; (in n-propyl acetate, 343.2 K) 0.00138; (in n-propyl acetate, 353.2 K) 0.0018. The solubility (mole fraction) (in n-propyl acetate, 363.2 K) was found to be 0.00215.

The compound `O=c1[nH]cc(C(F)(F)F)c(=O)[nH]1` gave a solubility (mole fraction) (in water, 298.15 K) of 0.00268.

As to `CN1COCN(Cc2cnc(Cl)s2)C1=N[N+](=O)[O-]`, the solubility (mole fraction) by setting is: (in methanol, 288.15 K) 0.00111; (in methanol, 293.15 K) 0.00141; (in methanol, 298.15 K) 0.00169; (in methanol, 303.15 K) 0.00225; (in methanol, 308.15 K) 0.00294; (in methanol, 313.15 K) 0.00397. Besides, the solubility (mole fraction) is 0.00486 (in methanol, 318.15 K) and 0.0063 (in methanol, 323.15 K).

Take `C1CCCC1`: the solubility (mole fraction) stood at 4.62e-05 (in water, 276.5 K); 4.29e-05 (in water, 282.2 K); 4.17e-05 (in water, 296.2 K).

As to `CC1(C)S[C@@H]2[C@H](N)C(=O)N2[C@H]1C(=O)O`, the solubility (mole fraction) reads like this: (in water, 274.15 K) 0.000132; (in water, 278.15 K) 0.000143; (in water, 283.15 K) 0.000159; (in water, 289.15 K) 0.000173; (in water, 293.15 K) 0.000183; (in water, 298.15 K) 0.000203. This compound yielded a solubility (mole fraction) (in water, 303.15 K) of 0.000226.

`O=c1[nH]cc(I)c(=O)[nH]1`: the solubility (mole fraction) (in water, 298.15 K) amounted to 0.000373.

Consider `c1ccc(P(c2ccccc2)c2ccccc2)cc1`, for which the solubility (mole fraction) is, setting by setting: (in ethanol, 303.5 K) 0.009; (in ethanol, 308.3 K) 0.0117; (in ethanol, 313.3 K) 0.0162; (in ethanol, 318.6 K) 0.0225; (in ethanol, 323.2 K) 0.0279; (in ethanol, 327.9 K) 0.0385. Also, where the note is “in ethanol, 333 K”, the solubility (mole fraction) was 0.0494.

`O=[N+]([O-])c1ccc(N/N=C/c2cccs2)c([N+](=O)[O-])c1` displayed a solubility (mole fraction) (in water, 298.15 K) of 7e-09.

Consider `COc1cc(/C=C/C(=O)O)cc(OC)c1O`, for which the solubility (mole fraction) was 0.147 (in DMSO, 298.15 K); 0.149 (in DMSO, 303.15 K); 0.152 (in DMSO, 308.15 K); 0.155 (in DMSO, 313.15 K); 0.158 (in DMSO, 318.15 K); 0.00586 (in ethylene glycol, 298.15 K). Besides, the solubility (mole fraction) reads like this: (in ethylene glycol, 303.15 K) 0.0066; (in ethylene glycol, 308.15 K) 0.0075; (in ethylene glycol, 313.15 K) 0.00848; (in ethylene glycol, 318.15 K) 0.0094.

For the compound `C[C@@H](O)[C@H]1C(=O)N2C(C(=O)[O-])=C(SC3Cn4cnc[n+]4C3)[C@H](C)[C@H]12` (stereo partly specified), the solubility (mole fraction) runs as follows: (in water, 283.15 K) 0.000323; (in water, 288.15 K) 0.000367; (in water, 293.15 K) 0.000413; (in water, 298.15 K) 0.000463; (in water, 303.15 K) 0.000521; (in water, 308.15 K) 0.000584. The solubility (mole fraction) runs as follows: (in water, 313.15 K) 0.000649; (in water, 318.15 K) 0.000721; (in water, 323.15 K) 0.000807.

In turn, `Cc1ccccc1` came in with a solubility (mole fraction) (in water, 295.7 K) of 0.000112.

Take `CCc1ccc(CCOc2ccc(CC3SC(=O)NC3=O)cc2)nc1.Cl` (stereo unspecified): the solubility (mole fraction) is, setting by setting: (in methanol, 283.15 K) 0.00517; (in methanol, 293.15 K) 0.00754; (in methanol, 303.15 K) 0.0102; (in methanol, 313.15 K) 0.0149; (in methanol, 323.15 K) 0.0223.

Compound `O=c1[nH]cc(Br)c(=O)[nH]1` had a solubility (mole fraction) (in water, 298.15 K) of 0.000272.

On to `N[C@@H](C(=O)O)c1ccc(O)cc1`, for which the solubility (mole fraction) by setting is: (in water, 293.25 K) 0.00196; (in water, 298.13 K) 0.0021; (in water, 303.15 K) 0.00224; (in water, 308.18 K) 0.00241; (in water, 313.15 K) 0.00255; (in water, 318.17 K) 0.00272.

The compound `O=C1C[C@@H](c2ccc(O)cc2)Oc2cc(O)cc(O)c21` displayed a solubility (mole fraction) (in 1,4-dioxane, 298.15 K) of 0.0669; a solubility (mole fraction) (in acetonitrile, 298.15 K) of 0.0473; a solubility (mole fraction) (in water, 298.15 K) of 1e-06.

For the compound `CN1C(C(=O)Nc2ccccn2)=C(O)c2ccccc2S1(=O)=O`, the solubility (mole fraction) stood at 0.000214 (in ethanol, 298.15 K) and 4.01e-07 (in water, 298.15 K).

As to `NCCC(=O)O`, the solubility (mole fraction) was 0.115 (in methanol, 288.15 K); 0.122 (in methanol, 293.15 K); 0.131 (in methanol, 298.15 K); 0.14 (in methanol, 303.15 K); 0.152 (in methanol, 308.15 K); 0.164 (in methanol, 313.15 K). In addition, the solubility (mole fraction) reads like this: (in methanol, 318.15 K) 0.173; (in methanol, 323.15 K) 0.183.

Regarding `O=[N+]([O-])c1ccc(N/N=C/c2cccs2)cc1`, the solubility (mole fraction) (in water, 298.15 K) was found to be 1.68e-07.

On to `C(=N\Nc1ccccc1)/c1ccc[nH]1`, for which the solubility (mole fraction) (in water, 298.15 K) was found to be 5.86e-07.

In the case of `CCCCCC`, the solubility (mole fraction) reads like this: (in water, 280.8 K) 3.1e-06; (in water, 295.5 K) 2.7e-06.

In the case of `CC(=O)N1CCN(c2ccc(OC[C@@H]3CO[C@@](Cn4ccnc4)(c4ccc(Cl)cc4Cl)O3)cc2)CC1` (racemic), the solubility (mole fraction) was 0.00683 (in 1,4-dioxane, 293.2 K); 0.00833 (in 1,4-dioxane, 298.2 K); 0.00983 (in 1,4-dioxane, 303.2 K); 0.0121 (in 1,4-dioxane, 308.2 K); 0.0139 (in 1,4-dioxane, 313.2 K); 0.019 (in NMP, 293.2 K). Also, the solubility (mole fraction) was found to be 0.023 (in NMP, 298.2 K); 0.0282 (in NMP, 303.2 K); 0.0321 (in NMP, 308.2 K); 0.0376 (in NMP, 313.2 K); 0.00275 (in ethanol, 293.2 K); 0.00358 (in ethanol, 298.2 K). The solubility (mole fraction) by setting is: (in ethanol, 303.2 K) 0.00434; (in ethanol, 308.2 K) 0.00561; (in ethanol, 313.2 K) 0.00649; (in isopropanol, 293.2 K) 0.000773; (in isopropanol, 298.2 K) 0.000948; (in isopropanol, 303.2 K) 0.00121. The solubility (mole fraction) is 0.0018 (in isopropanol, 308.2 K); 0.00237 (in isopropanol, 313.2 K); 0.00161 (in propylene glycol, 293.2 K); 0.00219 (in propylene glycol, 298.2 K); 0.00293 (in propylene glycol, 303.2 K); 0.00348 (in propylene glycol, 308.2 K). In addition, the solubility (mole fraction) (in propylene glycol, 313.2 K) is 0.00507; the solubility (mole fraction) (in transcutol, 293.2 K) stood at 0.0116; the solubility (mole fraction) (in transcutol, 298.2 K) amounted to 0.0136; the solubility (mole fraction) (in transcutol, 303.2 K) was 0.0159; the solubility (mole fraction) (in transcutol, 308.2 K) stood at 0.0189; the solubility (mole fraction) (in transcutol, 313.2 K) turned out to be 0.0212.

In the case of `C[C@@H](O)[C@H]1C(=O)N2C(C(=O)O)=C(S[C@@H]3CN[C@H](C(=O)N(C)C)C3)[C@H](C)[C@H]12.O.O.O`, the solubility (mole fraction) was 0.000408 (in water, 278.15 K); 0.000445 (in water, 283.15 K); 0.00051 (in water, 288.15 K); 0.000556 (in water, 293.15 K); 0.00066 (in water, 298.15 K); 0.000782 (in water, 303.15 K).

In the case of `CC(C)(C)C(=O)OCOP(=O)(COCCn1cnc2c(N)ncnc21)OCOC(=O)C(C)(C)C`, the solubility (mole fraction) reads like this: (in acetone, 298.15 K) 0.0662; (in dichloromethane, 298.15 K) 0.175; (in diisopropyl ether, 298.15 K) 3.71e-05; (in ethanol, 298.15 K) 0.0341; (in ethyl acetate, 298.15 K) 0.0263; (in isopropanol, 298.15 K) 0.0252.

Broadly, the solubility (mole fraction) is the moles of solute divided by all moles in the saturated solution.
